Here are results for 1 compound from US20250064774A1, “FORMULATIONS AND METHODS OF MAKING AND USING THE SAME” (AraVai Global LLC, priority 2021, published 2025).

The subject of this series is skin of the intrascapular regions of the back. The series is described as follows: Repeat insult patch test under occlusive conditions (induction and challenge). As to conditions: positive control.

Description: The raw material ingredients to be tested under occlusive conditions were placed on an 8-millimeter aluminum Finn Chamber® (Epitest Ltd. Oy, Tuusula, Finland) supported on Scanpor® Tape (Norgesplaster A/S, Kristiansand, Norway) or an 8-millimeter filter paper coated aluminum Finn Chamber® AQUA supported on a thin flexible transparent polyurethane rectangular film coated on one side with a medical grade acrylic adhesive, consistent with adhesive used in state-of-the-art hypoallergenic surgical tape or a 7 mm IQ-ULTRA® closed cell system which is made of additive-free polyethylene plastic foam with a filter paper incorporated. It is supplied in units of 10 chambers on a hypoallergenic non-woven adhesive tape; the width of the tape is 52 mm and the length is 118 mm or other equivalents. […]
Approximately 0.02-0.05 mL for liquid materials and/or 0.02-0.05 g for solid materials of the test material was used for the study. […] Prior to each reapplication, the test sites evaluated by trained laboratory personnel. […] Test sites were evaluated by trained laboratory personnel 48 and 96 hours after application. In the event of an adverse reaction, the area of erythema and edema were measured. […] Subjects were instructed to report any delayed reactions that might occur after the final reading. […]

`CCCCCCCCCCCCOS(=O)(=O)[O-].[Na+]` [2.0% Sodium Lauryl Sulfate Solution, Sodium Lauryl Sulfate]: the “subjects with a Grade 1 reaction” value is “ten” and the “subjects with a Grade 4 reaction” value is given as “one”.
